According to PMC11468294, “Peptide Amphiphiles as Biodegradable Adjuvants for Efficient Retroviral Gene Delivery” (Advanced Healthcare Materials, 2023):
“Also recorded” adds a separate entry of the source. Where a SMILES comes first, the peptide text is derived from it. The star is where a group is joined. X2 = CC/C=C\C/C=C\C/C=C\C/C=C\C/C=C\CCCC(=O)*; X1 = CC/C=C\C/C=C\C/C=C\CCCCCCCC(=O)*; Fmoc = O=C(OCC1c2ccccc2-c2ccccc21)*; Palmitoyl = CCCCCCCCCCCCCCCC(=O)*; Lauroyl = CCCCCCCCCCCC(=O)*

Key:
[1] = TEM morphology of peptide assemblies; type: physicochemical; details: diluted from DMSO stock (10 mg mL-1) to 1 mg mL-1 in PBS, incubated 1 d at rt
Procedure: (§1) Transmission electron microscopy (TEM) measurements, Thioflavin (ThT), zeta‐potential measurements for fibril characterization, ATR‐IR spectra acquisition and the calculation of β−sheet were prepared and conducted analogous to a previous report.^[ [20], [86] ^] […] Fibrils were defined as distinct, if no visible structures could be identified in fluorescence and brightfield microscopy. […] The derived count rate of the zeta‐potential measurement was used as information on the light scattering intensity and turbidity of the sample as a further indicator for microscopic aggregation.^[ [90] ^]
TEM: 5 µL of fibrils (1 mg mL^−1) were placed on 300 mesh, Formvar layered copper grids. After 10 min incubation time, the grids were staining with 4% uranyl acetate solution for 2.5 min. After
three washing steps with dd H2O excess solvent was removed by filter paper. Measurements
were performed on a Jeol 1400 electron microscope with 120 kV acceleration voltage.

[2] = system: HIV-1 infection of TZM-bl cells; test: HIV-1 infection assay (β-galactosidase luminescence reporter); type: cell-based
Procedure: HIV‐1 Infection Assay: The effect of peptide fibrils on HIV‐1 infection was studied via a luminescence assay for β‐galactosidase, which was reported by TZM‐bl cells upon infection. 10000 TZM‐bl cells were seeded in 180 µl supplemented DMEM one day prior infection. The cells were inoculated with 20 µl PNF solution 1:1 (v/v) mixed with virus (1:500 dilution) after an incubation time of 10 min. The HIV‐1 infection assay was conducted in three technical replicates and repeated in three independent experiments unless stated otherwise. The assay was conducted as described before.^[ [20] ^]

[3] = Microscopic aggregation (fluorescence / confocal microscopy, derived count rate); type: physicochemical; details: fibrils preformed at 1 mg mL-1 in PBS; ThT or Proteostat stain, widefield or confocal microscopy; derived count rate > 1000 kcps as criterion
Procedure: as §1
Fluorescence microscopy: 1 µL Fibrils (1 mg mL^−1) were stained with 9 µL, 50 µM ThT. 10 µL of the stained fibrils (0.1 mg mL^−1) were placed on a microscopy glass. Fluorescence microscopy measurements were performed on a Leica DMi8 microscope with 10x air objective and equipped with a Leica MC170 HD camera with a filter setting λem = 527/30 nm upon excitation at λex = 480/40 nm) and processed with the Leica LASX software.
(§2) 7 Effects of PA modifications on properties and activity
(§3) To investigate the effects of modification in the PA sequence, we created various peptide amphiphiles derived from PA1 by varying the (I) hydrophobic moiety, (II) the linkage chemistry and (III) the peptide sequence (Figure S12, SI chapter 7.1 – 7.3). The color code for sequence representation is yellow for the hydrophobic moiety, blue for cationic amino acids, red for non-polar amino acids, purple for polar uncharged amino acids, and green for anionic amino acids. To be concise, only the summarized information will be discussed, all original data for the peptides are summarized in the (Figure S26 - […]
(§4) Figure S12 Summarized overview of peptide amphiphile library in which systematic variations the original sequence […]
(§5) chemistry and (III) the peptide sequence on infectivity enhancement and degradability (see SI chapter 7.1 – 7.3).
(§6) In the following section a compound is considered infectivity enhancing if n-fold infectivity at 1.3 µM is larger than 2. A compound is considered to form µm-sized aggregates if visible particles were observed in widefield microscopy (brightfield or ThT-staining filter, objective 10x) or confocal […]
(§7) than 1000 kcps in Zeta-Potential measurements.
(§8) For the degradability only the PAs which could be stained with Proteostat (Figure S26) and were visible in microscopy (Figure S15, Figure S18, Figure S21, and Figure S22) were studied in detail. To determine […]
whether a PA is degraded or not, Proteostat stained PAs which are added to Hela cells (2 µg peptide added to 20.000 cells) and studied via confocal laser scanning microscopy. […]
In the following, we will distinguish between three aggregation types for fibrillar structures: Fibrils which were not aggregating (below resolution limit of the microscope, approx. 650 nm), moderately aggregating (< 50 µm2) and aggregating to large particles (> 50 µm 2).
7.1 Effects of hydrophobic moiety exchange on properties and activity
To investigate the effects of varying hydrophobic moieties on assembly, aggregation and activity , we

HeLa cells = type: in vitro ADME; details: for degradability by cells (in words): HeLa cells, 2 µg peptide added to 20,000 cells, d0 (30 min) vs d3, degradable if number and size of aggregates are reduced after 3 days
Procedure: Confocal laser scanning microscopy and degradation study with PA library and HeLa cells: Confocal laser scanning microscopy studies were performed for the visualization of the cell‐PA interaction. HeLa cells were seeded one day prior to conducting the assay (20000/well) in an 8‐well IBIDI slide. 2 µL of the preformed peptide fibrils (1 mg mL^−1) were diluted with 2 µL Proteostat (Enzo Life Science, 1 µL stock in 99 µL PBS) and incubated for 10 min and further diluted with medium to receive a final peptide concentration of 10 µg mL^−1. The nucleus of the HeLa cells was stained with Hoechst 33 342 (NucBlue, Thermo Fisher Scientific). The peptide solution mixture was transferred to the HeLa cells and incubated for 30 min at 37°C before washing three times with PBS. The interaction of fibril clusters with cells was monitored after 30 min incubation time on a Stellaris 8 confocal laser scanning microscope (Leica) equipped with a 20x air objective and laser excitation wavelengths of 405 nm (Hoechst), and 561 nm (Proteostat). For the evaluation of aggregate degradation, the samples were further incubated at 37°C for 3 d and analyzed without any additional washing step. The evaluation of aggregate size and number was conducted by analyzing Proteostat stained aggregates via the 3D objects counter function of ImageJ 1.53f51 for 3 individual measurements (area 1008 µm × 1008 µm). […] The number of aggregates were determined by counting aggregates larger than the threshold 10 µm^2 in an area of 1008 µm × 1008 µm and repeated in three technical triplicates.
as §2, §3, §4, §5, §6, §7, §8
whether a PA is degraded or not, Proteostat stained PAs which are added to Hela cells (2 µg peptide added to 20.000 cells) and studied via confocal laser scanning microscopy. Microscopy is conducted at day 0 (d0, after 30 min of incubation) and at day 3 (d3, after 72 h of incubation). The number of aggregates >10 µm2 is counted via 3D object counter in ImageJ in an area of 1008 µm × 1008 µm.
A PA is considered as degradable if the number and the size of aggregates are reduced after 3 days.
The efficiency is determined by the percentual degradation (aggregate number at d3 / aggregate number at d0). Three technical replicates were evaluated for each sample. A large deviation in number and size of aggregates represents a nonhomogeneous distribution and polymorphism of aggregates.

[4] = Zeta-potential measurement; type: physicochemical; details: 1 mg mL-1 in PBS, diluted in 1 mM KCl
Procedure: Zeta‐potential: 60 µL of the peptides (1 mg mL^−1) were diluted in 600 µL, 1 mM KCl solution and placed in a disposable folded capillary cuvette. All zeta‐potential measurements (Zetasizer, Malvern Instruments) were conducted in triplicates for each sample.

[5] = infectivity enhancing if n-fold at 1.3 µM larger than 2

SMILES	morphology of peptide assemblies / fibril formation (TEM) [1]	infectivity enhancement of HIV-1 (in words) [2, 5]	formation of µm-sized aggregates (in words) [3]	degradability by cells (in words) (HeLa cells)	average size of aggregates (HeLa cells; Proteostat-stained PA with HeLa cells, confocal aggregate analysis)	morphology of peptide assemblies / fibril formation (TEM) ([1]; listed as alpha linolenic acid)	zeta-potential (in words) [4]	infectivity enhancement of HIV-1 (in words) ([2]; infectivity enhancing if n-fold at 1.3 µM larger than 2, listed as alpha linolenic acid)
CCCCCCCCCCCCCCCC(=O)N[C@@H](CCCCN)C(=O)NCC(=O)N[C@H](C(=O)N1CCC[C@H]1C(=O)NCC(=O)N[C@H](C(=O)NCC(=O)N[C@@H](CCCCN)C(N)=O)C(C)C)C(C)C (Palmitoyl-KGVPGVGK-NH2)	not forming fibrils; also recorded: cannot self‐assemble into fibrils	Inactive	not forming µm-sized aggregates and forming too few/less aggregates, respectively					
CC/C=C\C/C=C\C/C=C\C/C=C\C/C=C\CCCC(=O)N[C@H](C(=O)N[C@H](C(=O)N[C@H](C(=O)N[C@@H](C)C(=O)N[C@@H](C)C(=O)N[C@@H](C)C(=O)N[C@@H](CCCCN)C(=O)N[C@@H](CCCCN)C(=O)N[C@@H](CCCCN)C(N)=O)C(C)C)C(C)C)C(C)C (X2-VVVAAAKKK-NH2)	structures composed of fibrillar structures			degradable PA	6-7 µm2			
CCCCCCCCCCCCCCCC(=O)N[C@@H](C)C(=O)NCC(=O)N[C@@H](C)C(=O)NCC(=O)N[C@@H](CCCNC(=N)N)C(=O)N[C@@H](CCCNC(=N)N)C(=O)N[C@@H](CCCNC(=N)N)C(N)=O [C16-AGAGRRR-NH2] (Palmitoyl-AGAGRRR-NH2)		Inactive	not forming µm-sized aggregates and forming too few/less aggregates, respectively; also recorded: cannot form µm‐sized aggregates					
CCCCCCCCCCCCCCCC(=O)NCC(=O)NCC(=O)NCC(=O)N[C@@H](CO)C(=O)N[C@@H](CO)C(=O)N[C@@H](CCCCN)C(=O)N[C@@H](CCCCN)C(=O)N[C@@H](CCCCN)C(N)=O (Palmitoyl-GGGSSKKK-NH2)		Inactive	not forming µm-sized aggregates and forming too few/less aggregates, respectively; also recorded: cannot form µm‐sized aggregates					
CC(C)[C@H](NC(=O)OCC1c2ccccc2-c2ccccc21)C(=O)N[C@H](C(=O)N[C@H](C(=O)N[C@@H](C)C(=O)N[C@@H](C)C(=O)N[C@@H](C)C(=O)N[C@@H](CCCCN)C(=O)N[C@@H](CCCCN)C(=O)N[C@@H](CCCCN)C(N)=O)C(C)C)C(C)C (Fmoc-VVVAAAKKK-NH2)	forming fibrils	active	very large	cannot be degraded by cells				
CCCCCCCCCCCCCCCC(=O)N[C@@H](Cc1c[nH]c2ccccc12)C(=O)N[C@@H](CCC(=O)O)C(=O)N[C@@H](C)C(=O)N[C@@H](CC(C)C)C(=O)N[C@@H](CCCCN)C(=O)N[C@@H](CCCCN)C(N)=O [C16-WEALKK-NH2] (Palmitoyl-WEALKK-NH2)	not forming fibrils; also recorded: cannot self‐assemble into fibrils	Inactive	not forming µm-sized aggregates and forming too few/less aggregates, respectively					
CCCCCCCCCCCCCCCC(=O)N[C@@H](CCCNC(=N)N)C(=O)N[C@@H](CCCNC(=N)N)C(=O)N[C@@H](Cc1c[nH]c2ccccc12)C(=O)N[C@@H](CCC(N)=O)C(=O)N[C@@H](Cc1c[nH]c2ccccc12)C(=O)N[C@@H](CCCNC(=N)N)C(N)=O [C16-RRWQWR-NH2] (Palmitoyl-RRWQWR-NH2)		Inactive	not forming µm-sized aggregates and forming too few/less aggregates, respectively; also recorded: cannot form µm‐sized aggregates					
CC/C=C\C/C=C\C/C=C\CCCCCCCC(=O)N[C@H](C(=O)N[C@H](C(=O)N[C@H](C(=O)N[C@@H](C)C(=O)N[C@@H](C)C(=O)N[C@@H](C)C(=O)N[C@@H](CCCCN)C(=O)N[C@@H](CCCCN)C(=O)N[C@@H](CCCCN)C(N)=O)C(C)C)C(C)C)C(C)C (X1-VVVAAAKKK-NH2)	cannot self‐assemble into fibrils	Inactive	do not aggregate			neither forming fibrils, nor it is aggregating or active	neutral zeta-potential	not able to maintain activity
CCCCCCCCCCCC(=O)N[C@H](C(=O)N[C@H](C(=O)N[C@H](C(=O)N[C@@H](C)C(=O)N[C@@H](C)C(=O)N[C@@H](C)C(=O)N[C@@H](CCCCN)C(=O)N[C@@H](CCCCN)C(=O)N[C@@H](CCCCN)C(N)=O)C(C)C)C(C)C)C(C)C [C12] (Lauroyl-VVVAAAKKK-NH2)		efficient infectivity enhancement	large aggregate formation	partially degraded				
CCCCCCCCCCCCCCCC(=O)NCC(=O)NCC(=O)N[C@H](C(=O)N[C@H](C(=O)N[C@@H](CCCNC(=N)N)C(=O)N[C@@H](CCCNC(=N)N)C(N)=O)C(C)C)C(C)C [C16-GGVVRR-NH2] (Palmitoyl-GGVVRR-NH2)		Inactive	not forming µm-sized aggregates and forming too few/less aggregates, respectively; also recorded: cannot form µm‐sized aggregates					
